The source of these data is patent US20220305021A1, “METHODS OF TREATING AND/OR PREVENTING PSORIASIS” (Athenex, Inc., priority 2019, published 2022).

In data set [1] the test system is mini-pigs. Briefly: Once daily KX-01 1% ointment on mini-pigs, occluded skin, 28 days. The format is in vivo, mini-pig. The text has this:
KX-01 1% once daily administration of KX-01 ointment was examined on the mini-pigs on 10% of body surface area with skin being occluded for consecutive 28 days.

Data set [2] has as its system subjects with psoriasis. Briefly: Phase I clinical trial of topical KX-01 ointment in subjects with psoriasis. It counts as in vivo, human. The method, then: Six subjects with psoriasis with Total Area Score (TAS) of 4-8 (based on the sum of the scores of erythema, elevation and scaling) were assessed. […] In stage I, each subject will be assigned randomly to KX-01 (0.01%, n=6) or placebo (n=2) before the first administration of investigational medicinal product (KX-01 or placebo). 22 subjects are recruited in three stages. Each subject in stage I will receive treatment for two weeks, followed by one-week wash-out, another two-week treatment, and then two-week follow-up. After a satisfactory collaborative review for the safety data of the lower strength (0.01%) at the end of follow up for each subject, if there is no major safety concern (major safety concern is defined as ≥2 subjects in the KX-01 group having ≥CTCAE Grade 3 or severe adverse drug reaction), as well as an unanimous consent by the sponsor and the principle investigator(s), stage II study begins where each subject is assigned randomly to KX-01 (0.1%, n=6) or placebo (n=2) before the first administration. Each subject in the stage II will receive treatment for four weeks, followed by a two-week follow-up. After a satisfactory collaborative review for the safety data of the lower strength (0.1%) at the end of follow up for each subject, if there is no major safety concern, stage III study follows. Stage III comprises a single arm study (n=6), where each subject will receive 1% KX-01 once daily for consecutive five days and then receive post-treatment follow-up on day 6, 15, and 29. • Stage I: 6 subjects (KX-01 0.01% [0.1 mg/g])+2 subjects (placebo) • Stage II: 6 subjects (KX-01 0.1% [1.0 mg/g])+2 subjects (placebo) • Stage III: 6 subjects (KX-01 1% [10 mg/g]) Subjects visit the study center for ambulatory visits: • Stage I (See Tables 1A and 1B) • Visit 1: Screening, within 28 days before first application of IMP • Visit 2: Week 1 (Day 1/Baseline) • Visit 3: Week 2 (Day 8±3/After consecutive 1-week treatment) • Visit 4: Week 3 (Day 15±3/After consecutive 2-week treatment) • Visit 5: Week 4 (Day 22±3/After 1 week wash-out) • Visit 6: Week 6 (Day 36±3/After another consecutive 2-week treatment) • Visit 7: Week 8 (Day 50±3/After 2-week post-treatment follow-up) • Stage II (See Tables 2A and 2B) • Visit 1: Screening, within 28 days before first application of IMP • Visit 2: Week 1 (Day 1/Baseline) • Telephone interview (Day 8±3, after consecutive 1-week treatment) • Visit 3: Week 3 (Day 15±3/After consecutive 2-week treatment) • Visit 4: Week 5 (Day 29±3/After consecutive 4-week treatment) • Visit 5: Week 7 (Day 43±3/After 2-week post-treatment follow-up) • […] (See Table 3) • Visit 1: Screening, within 28 days before first application of IMP • Visit 2: Day 1, baseline • Visit 3: Day 6±1, after consecutive 5-day treatment • Visit 4: Day 15±2, after 10-day post-treatment follow up • Visit 5: Day 29±2, after 24-day post-treatment follow-up The IMP (treatment or placebo) is applied to a single lesion. […] For stage I, each subject receives IMP for 14 consecutive days, followed by 1-week wash-out period and then receives IMP for another 14 consecutive days. For stage II, each subject receives IMP for 28 consecutive days. For stage III, each subject receives IMP once daily for consecutive five days. For stage I and II, blood samples for the determination of KX-01 concentrations are collected prior to the morning dose at the designated ambulatory visits to the study center (Stage I: Day 1, 8±3, 15±3, 22±3 Stage II: Day 1, 15±3, 29±3) (See Table 4). For stage III, blood samples for drug concentrations are collected prior to the dose on day 1, and day 6±1, day 15±2. The duration of this study is approximately three months for each subjects (See Table 4). On day 1, a single treatment lesion consisting of active psoriasis skin lesion of at least 16 cm^2 in size with upper limit of 625 cm^2 for stage I and II, and at least 16 cm^2 and no more than 100 cm^2 (≥16 cm^2 &≤100 cm^2) in size for stage III is selected for each subject. […]

Data set [3] has as its system rats. Briefly: Twice daily dermal administration of KX-01 ointment to rats (six days). The format is in vivo, rat. The method, then:
Subjects in clinical studies of KX-01 ointment where administered KX-01 ointment up to 250 mg (5 mg/cm^2 [administration amount]×25 cm^2 [administration area]×2 [safety factor for larger application area]). This amount of the 0.01% or 0.1% concentration of ointment contains 0.025 mg or 0.25 mg of KX-01. Therefore, the amount of KX-01 delivered to the skin of the average 60 kg subject is 0.025 or 0.25 mg/60 kg/dose, or 0.00042 or 0.0042 mg/kg/dose. […] The safety margin in administered dermal KX-01 dose indicates little risk of adverse systemic effects in humans under the conditions of the clinical studies of KX-01 ointment based on nonclinical studies in animals.

The test system of data set [4] is rabbits. Briefly: Twice daily dermal administration of KX-01 ointment to rabbits (seven days, single dose on day eight). It counts as in vivo, rabbit. The settings on record: up to 2.0667 mg/kg KX-01 in ointment, seven days twice daily dosing with a single dose on day eight.
[5] abbreviates: 1% ointment once daily, 10% of body surface area, occluded, 28 consecutive days.
Setting [6] is: 1% ointment daily for five days, observed in one subject.
Where [7] appears, read: KX-01 ointment 0.01% twice daily dose regimen.

Take `O=C(Cc1ccc(-c2ccc(OCCN3CCOCC3)cc2)cn1)NCc1ccccc1` [KX-01, Tirbanibulin]: in data set [1] (setting [5]), the Body weight entry was “decreased”; the “Edema at the drug application site” value was “very slight to slight”; the “Erythema and eschar at the drug application site” value is reported as “very slight to severe”; the “Hepatic, renal, and haematological profiles” value is recorded as “changes”. For the same molecule, the “Other skin findings at the drug application site” value in data set [1] (setting [5]) is given as “desquamation, fissuring, scab, ulceration”. In addition, the Reversibility of findings result in data set [1] (by the last week of recovery after 28 days of 1% ointment) is “Most of these findings were resolved”. Besides, the “Systemic absorption of KX-01” value in data set [2] (1% ointment daily for five days, topical) is “no significant absorption”. Moreover, the Psoriatic plaque thickness entry in data set [2] (1% ointment daily for five days, another subject of six) was “improvement”. In data set [2] (setting [6]), the “Skin burning sensation (adverse event severity)” value is “mild (grade-1)” and the “Skin irritation (adverse event severity)” value is “mild (grade-1)”. Further, in data set [2] (1% ointment daily for five days, one subject of six), the Skin scaling result is “complete resolution”. The Tolerability of treatment entry in data set [2] (1% ointment daily for five days, six subjects) was “well-tolerated”. Also, the “TAS score (sum of erythema, elevation and scaling)” value in data set [2] (1% ointment daily for five days, six subjects, baseline TAS 4-8) was “All subjects showed an improvement”. Moreover, the Clinical activity result in data set [2] (KX-01 (Tirbanibulin) 1% ointment daily for five days, first cohort of subjects with psoriasis) was “Clinical activity signals were observed”. For the same molecule, in data set [2] (setting [7]), the “Serious adverse events (SAE)” value is “No serious adverse event” and the “Treatment-emergent adverse events related to drug” value is reported as “Only one treatment-emergent adverse event, Grade 1 tenderness”. Also, in data set [2] (KX-01 ointment 0.01% twice daily dose regimen, most subjects), the Tolerability result is “excellent and good”. Also, the Safety profile result in data set [2] (KX-01 ointment in the treatment of psoriasis) is recorded as “Good safety profile”. Further, the “Safety margin: clinical dermal dose times lower than rat 12.4 mg/kg/dose” value in data set [3] (0.01% ointment, 0.025 mg/60 kg/dose (0.00042 mg/kg/dose) in humans vs 12.4 mg/kg/dose in rats) is listed as “approximately 29700 times”. In data set [3] (0.1% ointment, 0.25 mg/60 kg/dose (0.0042 mg/kg/dose) in humans vs 12.4 mg/kg/dose in rats), the “Safety margin: clinical dermal dose times lower than rat 12.4 mg/kg/dose” value is recorded as ~2970 times. For the same molecule, the “Plasma concentrations of KX-01” value in data set [3] (rat, in vivo) is on record as “very low”. In data set [4], the Skin irritation result was “mild to moderate” and the Systemic adverse effects entry is “no signs of systemic adverse effects”.
